Patent publication US5985937A, “Use of 2,4-distributed phenol derivatives as 5-lipoxygenase inhibitors” (priority 1994, dated 1999)

What was measured:
herpes simplex = assay: in vivo activity in patients with herpes simplex; design: species or system human (patients); conditions: 15 mg/day intramuscularly, a month
From the text: The 2,4-disubstituted phenol derivatives of the present invention are anti-herpetic agents in vivo, since they eliminate the symptoms of patients suffering from different types of herpes simplex (genital herpes, herpes of mouth and lips, recurrent herpes), and of patients suffering from herpes zoster. There is no relapse after leaving the treatment. The products are active both intramuscularly and topically, the first via being preferred.
A total of 25 patients with symptoms of different herpes simplex (genital, buccal or reincident) were treated with 15 mg/day of Bobel-24, intramuscularly, during a month, with the following results: with the ten patients of genital herpes simplex, the results was excellent in 7 cases, good in 2 and regular in 1; of the twelve with buccal herpes simplex it was excellent in 9 cases, good in 2 and regular in 1; of the 3 with reincident herpes it was excellent in 2 of the cases and good in 1. […] The case of genital herpes which resulted "regular" was an obese and diabetic […], and although there was an improvement there was also reincidency. Independently an test for antiviral activity in vitro resulted negative.

tendonitis = assay: treatment of horses with tendonitis; format: in vivo, horse; conditions: 15 mg/day intraarticular infiltration
Procedure: Twenty five horses suffering from tendonitis, with claudication of the corresponding tendon, were treated with 15 mg/day via intraarticular infiltration of Bobel-24.

canine arthritis = assay: clinical trial on canine arthritis; format: in vivo, dog; design: key: +++: very good response, total recovery; ++: good response, functionability recovery; +: moderate response, improvement; -: negative response or no apparent improvement; conditions: 2 mg/kg day orally, 15 days
Procedure: After the diagnosis, each animal was treated with Bobel capsules during 45 days, with a follow up every 15 days. Blood, synovial liquid and urine samples were taken at the beginning and at the end of the treatment in order to perform the following tests: Synovial liquid analysis (cytology, cytokines 1,6,8 and TNF); LTB4; LTC4; PGE2; hematic count and leukocyte content; standard serum biochemistry; urine sediment; Rose-Wealer test; and radiology control. The methodology for clinical validation involved applying evaluating uniform parameters and classifying the results according to the following notations: (+++)=very good response, total recovery; (++)=good response, functionability recovery; (+)=moderate response, improvement; (-)=negative response or no apparent improvement.
After the diagnosis each animal was treated with capsules of Bobel-24 during 15 days. Blood, synovial liquid and urine samples were taken at the beginning and at the end of the treatment in order to perform the same tests as in example 13, using the same notation for the clinical evolution.

seborrheic dermatitis = assay: treatment of dogs with seborrheic dermatitis; format: in vivo, dog; conditions: 15 dogs (Cockers), phase I or II, 1 mg/kg.day p.o. plus 2% shampoo
Procedure: A total of 15 dogs (Cockers) suffering from seborrheic dermatitis in phase I or II were treated with doses of 1 mg/kg.day p.o. of Bobel-24, and were simultaneously washed with a shampoo containing 2% of the same product.

rats = assay: chronic toxicity in rats; format: in vivo, rat; conditions: 350 mg/kg.day, 6 months; hematological, biochemical, anatomy-pathological
[1] = acute toxicity in Sprague-Dawley rats; conditions: rat, in vivo, po
[2] = test system: rheumatoid arthritis, hip dysplasia, equine cauda, deforming spondolitis or coxarthrosis; assay: treatment of dogs with articular or musculoskeletal diseases; format: in vivo, dog; conditions: twenty dogs, oral 1-3 mg/kg.day
feline asthma = assay: treatment of cats with feline asthma; format: in vivo, cat; conditions: 5 mg/day, cream applied to the leg and licked
[3] = test system: canine seborrheic dermatitis; assay: clinical trial on canine seborrheic dermatitis; format: in vivo, dog; design: key: +++: very good response, total recovery; ++: good response, functionability recovery; +: moderate response, improvement; -: negative response or no apparent improvement; conditions: weekly bath 2% shampoo, 15 days
Procedure: The animals had been diagnosed to suffer from seborrheic dermatitis, and the diagnosis was confirmed by a biopsy. The treatment consisted of a weekly bath with a 2% Bobel-24 shampoo and evaluation of the treatment after 15 days. The efficiency of the treatment was analyzed evaluating the following therapeutic symptoms; removal of scabs and scales, greasiness reduction, sheborrheic odor reduction, relieve of the pruritus, and antiinflammatory effect. […] In view of the results the following conclusions were reached: […]

Q: Which results are given for `Oc1c(I)cc(I)cc1I` [Bobel-24, 2,4,6-triiodophenol]?
A: disappearance of the symptoms, herpes simplex overall (herpes simplex; 25 patients): clear and generalized disappearance of the symptoms; cases with excellent result, reincident herpes (herpes simplex; of 3 patients): 2 cases; cases with good result, reincident herpes (herpes simplex; of 3 patients): 1 cases; cases with excellent result, genital herpes simplex (herpes simplex; of ten patients): 7 cases; cases with good result, genital herpes simplex (herpes simplex; of ten patients): 2 cases; cases with regular result, genital herpes simplex (herpes simplex; of ten patients, obese and diabetic patient, reincidency): 1 cases; cases with excellent result, buccal herpes simplex (herpes simplex; of twelve patients): 9 cases; cases with good result, buccal herpes simplex (herpes simplex; of twelve patients): 2 cases; cases with regular result, buccal herpes simplex (herpes simplex; of twelve patients): 1 cases; outcome in the rest of the cases (tendonitis; horses, 15 days): the claudication disappeared within the same period of time, but an inflammatory ring persisted around the tendon; cases in which the process was totally reduced in 15 days (tendonitis; of twenty five horses): 17 cases; Evolution, knee instability (canine arthritis; German shepherd 2 years): ++; Evolution, osteochondritis (canine arthritis; Mongrel 1 year): +++; Evolution, arthritis (canine arthritis; b340 Mongrel 8, b342 German shepherd 6, b343 Rottwailer 1, b347 Mongrel 7 years): +++; disappearance of the dermatitis (seborrheic dermatitis): practically a total disappearance of the dermatitis; chronic toxicity in rats (rats): not observed; LD50 [1]: 1500 mg/kg; response [2]: very good response within 1 or 2 weeks; results in feline asthma (feline asthma): satisfactory results in many cases; Evolution, etiology allergic ([3]; b363 Poodle 6, b364 Mongrel 14, b374 Mongrel 10, b376 Belgian shepherd 10, b382 Poodle 9, b392 Mongrel 5 years): +; Evolution, etiology leishmania ([3]; b369 German shepherd 10, b377 Pekinese 11, b379 German shepherd 3 years): +
